Data on six compounds can be found in ChEMBL document CHEMBL5380774, “Fragment-to-Lead Medicinal Chemistry Publications in 2021” (J Med Chem, 2023).

pEC50, pIC50, pKd, pKi: −log10 of the molar value.

The target in experiment [1] is T1, Adenosine receptor A1 (Homo sapiens, UniProt P30542).
T1 sequence (P30542 whole entry): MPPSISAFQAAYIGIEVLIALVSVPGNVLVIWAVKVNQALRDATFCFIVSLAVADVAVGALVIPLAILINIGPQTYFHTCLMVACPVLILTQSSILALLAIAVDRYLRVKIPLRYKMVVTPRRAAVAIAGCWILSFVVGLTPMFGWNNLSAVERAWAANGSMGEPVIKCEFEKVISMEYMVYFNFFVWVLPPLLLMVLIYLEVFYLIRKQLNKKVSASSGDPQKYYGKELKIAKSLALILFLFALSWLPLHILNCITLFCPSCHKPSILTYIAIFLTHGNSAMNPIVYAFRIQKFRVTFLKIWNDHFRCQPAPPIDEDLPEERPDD
The experiment can be described thus: Binding affinity to human A1AR assessed as inhibition constant.

The target of experiment [2] is T2, Histone-lysine N-methyltransferase ASH1L (Homo sapiens, UniProt Q9NR48). The experiment can be described thus: Binding affinity to ASH1L SET domain (2069 to 2288 residues) (unknown origin) assessed as dissociation constant by ITC analysis. (In general: In ITC the heat of successive injections is recorded.)
The target of experiment [3] is Proto-oncogene tyrosine-protein kinase receptor Ret (Homo sapiens, UniProt P07949). In words: Inhibition of rearranged during transfection kinase (unknown origin).
The target of experiment [4] is YEATS domain-containing protein 4 (Homo sapiens, UniProt O95619). The experiment can be described thus: Inhibition of human N-terminal GST tagged GAS41 (1 to 148 residues) incubated for 1 hr by fluorescence polarization assay.
Experiment [5] addresses T2, Histone-lysine N-methyltransferase ASH1L. In words: Inhibition of N-terminal Mocr-tagged ASH1L (2069 to 2288 residues) (unknown origin) expressed in Escherichia coli BL21 (DE3) by […].
Experiment [6] has as its target T3, Muscarinic acetylcholine receptor M1 (Homo sapiens, UniProt P11229).
T3 sequence (P11229 whole entry): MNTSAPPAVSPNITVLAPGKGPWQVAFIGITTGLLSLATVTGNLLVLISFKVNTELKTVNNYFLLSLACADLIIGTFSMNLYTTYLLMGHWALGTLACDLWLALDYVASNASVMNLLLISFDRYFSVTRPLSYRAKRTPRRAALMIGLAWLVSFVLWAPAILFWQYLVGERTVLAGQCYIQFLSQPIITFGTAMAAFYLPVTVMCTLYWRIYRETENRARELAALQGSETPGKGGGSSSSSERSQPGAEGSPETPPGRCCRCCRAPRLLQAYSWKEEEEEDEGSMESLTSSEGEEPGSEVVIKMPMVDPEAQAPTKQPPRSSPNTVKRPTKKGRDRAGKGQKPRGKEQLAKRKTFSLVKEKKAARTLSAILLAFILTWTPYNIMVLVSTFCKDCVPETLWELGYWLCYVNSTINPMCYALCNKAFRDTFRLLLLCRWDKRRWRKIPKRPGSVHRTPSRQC
The experiment can be described thus: Agonist activity at human M1 receptor. The experiment is classed as functional.

Sequence of YEATS domain-containing protein 4 (O95619 whole entry, the tested form may be a part): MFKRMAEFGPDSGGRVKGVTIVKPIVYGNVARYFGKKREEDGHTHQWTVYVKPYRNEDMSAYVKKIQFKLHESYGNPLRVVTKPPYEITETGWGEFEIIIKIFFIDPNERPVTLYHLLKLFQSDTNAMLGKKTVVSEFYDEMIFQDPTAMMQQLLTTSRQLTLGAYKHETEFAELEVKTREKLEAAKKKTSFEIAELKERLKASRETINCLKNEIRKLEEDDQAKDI
Sequence of Proto-oncogene tyrosine-protein kinase receptor Ret (P07949 whole entry, the tested form may be a part): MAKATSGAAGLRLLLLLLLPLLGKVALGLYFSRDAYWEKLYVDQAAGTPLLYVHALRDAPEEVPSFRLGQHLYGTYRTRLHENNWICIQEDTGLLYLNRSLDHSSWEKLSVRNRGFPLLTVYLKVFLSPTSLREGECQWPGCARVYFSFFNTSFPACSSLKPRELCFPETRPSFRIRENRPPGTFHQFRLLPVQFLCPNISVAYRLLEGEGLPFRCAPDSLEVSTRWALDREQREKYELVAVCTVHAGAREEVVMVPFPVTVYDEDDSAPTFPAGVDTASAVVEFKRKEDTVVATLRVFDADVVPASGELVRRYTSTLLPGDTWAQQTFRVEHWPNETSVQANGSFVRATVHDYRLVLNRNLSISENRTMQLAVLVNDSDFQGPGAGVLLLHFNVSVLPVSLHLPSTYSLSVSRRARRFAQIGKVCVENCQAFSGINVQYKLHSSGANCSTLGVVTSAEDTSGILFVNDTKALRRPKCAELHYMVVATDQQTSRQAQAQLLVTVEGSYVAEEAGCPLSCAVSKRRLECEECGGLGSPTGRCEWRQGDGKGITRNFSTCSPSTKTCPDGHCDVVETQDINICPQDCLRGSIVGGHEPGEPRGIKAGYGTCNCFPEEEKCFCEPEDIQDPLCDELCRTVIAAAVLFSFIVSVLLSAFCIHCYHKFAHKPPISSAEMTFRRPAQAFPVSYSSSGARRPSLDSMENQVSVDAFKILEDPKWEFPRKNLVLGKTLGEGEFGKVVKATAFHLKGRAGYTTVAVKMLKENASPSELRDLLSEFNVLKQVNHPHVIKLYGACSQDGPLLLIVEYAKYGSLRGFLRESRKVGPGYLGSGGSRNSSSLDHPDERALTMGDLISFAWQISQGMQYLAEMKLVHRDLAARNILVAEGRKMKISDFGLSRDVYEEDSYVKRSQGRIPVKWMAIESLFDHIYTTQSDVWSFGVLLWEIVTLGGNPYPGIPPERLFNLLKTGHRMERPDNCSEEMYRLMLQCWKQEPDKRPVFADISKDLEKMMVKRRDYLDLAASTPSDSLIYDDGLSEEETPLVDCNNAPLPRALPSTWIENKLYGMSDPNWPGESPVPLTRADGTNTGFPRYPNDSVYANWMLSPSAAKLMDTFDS

Consider `CC(=O)Nc1nc2ccccc2s1`, for which the pKi – broadly, −log10 of the Ki, conventionally taken in molar units – in experiment [1] was 4.96.
Regarding `NC(=S)c1cccc(-n2cccc2)c1`, the pKd (in general, −log10 of the Kd, conventionally taken in molar units) in experiment [2] was under 3.00.
On to `Nc1ncnc2[nH]ncc12`, for which, in experiment [3], the pIC50 (in general, −log10 of the IC50, conventionally taken in molar units) was 5.04.
Compound `O=C(Nc1ccc(C(=O)N2CC(c3nc4ccccc4s3)C2)s1)[C@@H]1C[C@@H](OCCCCCO[C@H]2CN[C@H](C(=O)Nc3ccc(C(=O)N4CC(c5nc6ccccc6s5)C4)s3)C2)CN1` showed a pIC50 in experiment [4] of 7.02.
For the compound `CN1CC(C(=O)NCc2ccc3c(-c4cccc(C(N)=S)c4)cn(C4CCC(S(=O)(=O)C(F)(F)F)CC4)c3c2)C1` (stereo unspecified), in experiment [5], the pIC50 is 6.10.
In the case of `CCOC(=O)N1CCC(N2CCC(C(N)=O)CC2)CC1`, the pEC50 (in general, −log10 of the EC50, conventionally taken in molar units) in experiment [6] is 5.49.
